Test results published in ChEMBL document CHEMBL5500339, “4-Hydroxy-2-pyridone derivatives with antitumor activity produced by mangrove endophytic fungus Talaromyces sp. CY-3” (Eur J Med Chem, 2024).
Active and inactive are the calls of the source. The calls are words filed in the database; no cut-off is given here.

Key:
MDA-MB-435 = assay: Cytotoxicity against human MDA-MB-435 cells assessed as reduction in cell viability incubated for 48 hrs by MTT assay; format: functional, cell-based; conditions: MDA-MB-435, 48 h
NCI-H1703 [1] = assay: Induction of cell cycle arrest in human NCI-H1703 cells assessed as downregulation of Rb phosphorylation at Ser807/811 residue at 10 uM incubated for 24 hrs by Western blotting analysis; format: functional, cell-based
A549 [2] = assay: Induction of cell cycle arrest in human A549 cells assessed as downregulation of CDK6 protein expression incubated for 24 hrs by Western blotting analysis; format: functional, cell-based
A549 [3] = assay: Antiproliferative activity against human A549 cells assessed as inhibition of cell growth at 10 uM incubated for 24 hrs by MTT assay; format: functional, cell-based
A549 [4] = assay: Induction of cell cycle arrest in human A549 cells assessed as upregulation of p53 protein expression incubated for 24 hrs by Western blotting analysis; format: functional, cell-based
NCI-H1703 [5] = assay: Induction of cell cycle arrest in human NCI-H1703 cells assessed as accumulation of cells at G2/M phase at 5 uM incubated for 24 hrs by flow cytometric analysis (reference value: 29.88 %); format: functional
CT26 = assay: Cytotoxicity against mouse CT26 cells assessed as reduction in cell viability incubated for 48 hrs by MTT assay; format: functional, cell-based; conditions: CT26, 48 h
NCI-H1703 [6] = assay: Induction of cell cycle arrest in human NCI-H1703 cells assessed as downregulation of total Rb protein level at 5 uM incubated for 24 hrs by Western blotting analysis; format: functional, cell-based
NCI-H1703 [7] = assay: Induction of cell cycle arrest in human NCI-H1703 cells assessed as downregulation of CyclinD1 protein expression incubated for 24 hrs by Western blotting analysis; format: functional, cell-based
A549 [8] = assay: Induction of cell cycle arrest in human A549 cells assessed as accumulation of cells at G1/G0 phase at 10 uM incubated for 24 hrs by flow cytometric analysis (reference value: 51.49 %); format: functional
A549 [9] = assay: Antiproliferative activity against human A549 cells assessed as inhibition of cell growth at 20 uM incubated for 24 hrs by MTT assay; format: functional, cell-based
A549 [10] = assay: Induction of cell cycle arrest in human A549 cells assessed as accumulation of cells at S phase at 20 uM incubated for 24 hrs by flow cytometric analysis (reference value: 31.31 %); format: functional
A549 [11] = assay: Inhibition of colony formation in human A549 cells at 10 uM incubated for 7 days by crystal violet staining analysis; format: functional, cell-based; conditions: time 7.0 day
NCI-H1703 [12] = assay: Antiproliferative activity against human NCI-H1703 cells assessed as inhibition of cell growth at 10 uM incubated for 24 hrs by MTT assay; format: functional, cell-based
A549 [13] = assay: Induction of cell cycle arrest in human A549 cells assessed as downregulation of total Rb protein level at 20 uM incubated for 24 hrs by Western blotting analysis; format: functional, cell-based
MDA-MB-231 = assay: Cytotoxicity against human MDA-MB-231 cells assessed as reduction in cell viability incubated for 48 hrs by MTT assay; format: functional, cell-based; conditions: MDA-MB-231, 48 h
A549 [14] = assay: Induction of cell cycle arrest in human A549 cells assessed as downregulation of CyclinD1 protein expression incubated for 24 hrs by Western blotting analysis; format: functional, cell-based
[15] = Cytotoxicity against mouse Lewis lung carcinoma cell line assessed as reduction in cell viability incubated for 48 hrs by MTT assay; format: functional, cell-based
HCT-116 = assay: Cytotoxicity against human HCT-116 cells assessed as reduction in cell viability incubated for 48 hrs by MTT assay; format: functional, cell-based; conditions: HCT-116, 48 h
NCI-H1703 [16] = assay: Antiproliferative activity against human NCI-H1703 cells assessed as inhibition of cell growth at 20 uM incubated for 24 hrs by MTT assay; format: functional, cell-based
A549 [17] = assay: Induction of cell cycle arrest in human A549 cells assessed as downregulation of Rb phosphorylation at Ser807/811 residue at 20 uM incubated for 24 hrs by Western blotting analysis; format: functional, cell-based
Hepa 1-6 = assay: Cytotoxicity against mouse Hepa1-6 cells assessed as reduction in cell viability incubated for 48 hrs by MTT assay; format: functional, cell-based; conditions: Hepa1-6, 48 h
NCI-H1703 [18] = assay: Induction of cell cycle arrest in human NCI-H1703 cells assessed as downregulation of CDK6 protein expression incubated for 24 hrs by Western blotting analysis; format: functional, cell-based
NCI-H1703 [19] = assay: Induction of cell cycle arrest in human NCI-H1703 cells assessed as downregulation of Rb phosphorylation at Ser807/811 residue at 5 uM incubated for 24 hrs by Western blotting analysis; format: functional, cell-based
MC-38 = assay: Cytotoxicity against mouse MC38 cells assessed as reduction in cell viability incubated for 48 hrs by MTT assay; format: functional, cell-based; conditions: MC-38, 48 h
4T1 = assay: Cytotoxicity against mouse 4T1 cells assessed as reduction in cell viability incubated for 48 hrs by MTT assay; format: functional, cell-based; conditions: 4T1, 48 h
NCI-H1703 [20] = assay: Cytotoxicity against human NCI-H1703 cells assessed as reduction in cell viability incubated for 48 hrs by MTT assay; format: functional, cell-based; conditions: NCI-H1703, 48 h
A549 [21] = assay: Induction of cell cycle arrest in human A549 cells assessed as accumulation of cells at S phase at 10 uM incubated for 24 hrs by flow cytometric analysis (reference value: 31.31 %); format: functional
A549 [22] = assay: Cytotoxicity against human A549 cells assessed as reduction in cell viability incubated for 48 hrs by MTT assay; format: functional, cell-based; conditions: A549, 48 h
NCI-H1703 [23] = assay: Inhibition of colony formation in human NCI-H1703 cells at 2.5 uM incubated for 7 days by crystal violet staining analysis; format: functional, cell-based; conditions: time 7.0 day
PC-3 = assay: Cytotoxicity against human PC-3 cells assessed as reduction in cell viability incubated for 48 hrs by MTT assay; format: functional, cell-based; conditions: PC-3, 48 h
A549 [24] = assay: Induction of cell cycle arrest in human A549 cells assessed as downregulation of CDK4 protein expression incubated for 24 hrs by Western blotting analysis; format: functional, cell-based
A549 [25] = assay: Induction of cell cycle arrest in human A549 cells assessed as downregulation of Rb phosphorylation at Ser807/811 residue at 10 uM incubated for 24 hrs by Western blotting analysis; format: functional, cell-based
A549 [26] = assay: Induction of cell cycle arrest in human A549 cells assessed as accumulation of cells at G2/M phase at 20 uM incubated for 24 hrs by flow cytometric analysis (reference value: 17.2 %); format: functional
NCI-H1703 [27] = assay: Induction of cell cycle arrest in human NCI-H1703 cells assessed as upregulation of p53 protein expression incubated for 24 hrs by Western blotting analysis; format: functional, cell-based
NCI-H1703 [28] = assay: Induction of cell cycle arrest in human NCI-H1703 cells assessed as downregulation of CDK4 protein expression incubated for 24 hrs by Western blotting analysis; format: functional, cell-based
A549 [29] = assay: Inhibition of colony formation in human A549 cells at 20 uM incubated for 7 days by crystal violet staining analysis; format: functional, cell-based; conditions: time 7.0 day
NCI-H1703 [30] = assay: Induction of cell cycle arrest in human NCI-H1703 cells assessed as accumulation of cells at G2/M phase at 10 uM incubated for 24 hrs by flow cytometric analysis (reference value: 29.88 %); format: functional
A549 [31] = assay: Induction of cell cycle arrest in human A549 cells assessed as upregulation of p21 protein expression incubated for 24 hrs by Western blotting analysis; format: functional, cell-based
A549 [32] = assay: Antiproliferative activity against human A549 cells assessed as inhibition of cell growth incubated for 18 hrs by Edu incorporation based fluorescence microscopic analysis; format: functional

C/C=C/[C@@H]1[C@H]2C[C@@H](C)CC[C@@H]2C(C)=C[C@H]1C(=O)c1c(O)c(-c2ccc(O)cc2)c[nH]c1=O [ILICICOLIN H]
IC50 (MDA-MB-435): 6.34 µM | Activity (NCI-H1703 [1]): Active | Activity (A549 [2]): Dose-Dependent Effect | Activity (A549 [3]): Active | Activity (A549 [4]): Dose-Dependent Effect | Activity (NCI-H1703 [5]): 26.61% | IC50 (CT26): 19.5 µM | Activity (NCI-H1703 [6]): inactive | Activity (NCI-H1703 [7]): Dose-Dependent Effect | Activity (A549 [8]): 64.26% | Activity (A549 [9]): Active | Activity (A549 [10]): 14.95% | inhibition (A549 [11]): Active | Activity (NCI-H1703 [12]): Active | Activity (A549 [13]): inactive | IC50 (MDA-MB-231): 9.98 µM | Activity (A549 [14]): Dose-Dependent Effect | IC50 [15]: 5.78 µM | IC50 (HCT-116): 10.8 µM | Activity (NCI-H1703 [16]): Active | Activity (A549 [17]): Active | IC50 (Hepa 1-6): 19.6 µM | Activity (NCI-H1703 [18]): Dose-Dependent Effect | Activity (NCI-H1703 [19]): Active | IC50 (MC-38): 19.6 µM | IC50 (4T1): 13.8 µM | IC50 (NCI-H1703 [20]): 6.65 µM | Activity (A549 [21]): 10.84% | IC50 (A549 [22]): 7.01 µM | inhibition (NCI-H1703 [23]): Active | IC50 (PC-3): > 50 µM | Activity (A549 [24]): Dose-Dependent Effect | Activity (A549 [25]): Active | Activity (A549 [26]): 12.93% | Activity (NCI-H1703 [27]): Dose-Dependent Effect | Activity (NCI-H1703 [28]): Dose-Dependent Effect | inhibition (A549 [29]): Active | Activity (NCI-H1703 [30]): 19.48% | Activity (A549 [31]): Dose-Dependent Effect | Activity (A549 [32]): Dose-Dependent Effect
